This passage reports Kd results from publication PMC5362409, “Antivascular and antitumor properties of the tubulin-binding chalcone TUB091” (Oncotarget, 2016).

SMILES strings stand for the structures.

This assay has as its target T1, αβ-tubulin (β-tubulin, colchicine site) (Bos taurus, UniProt P81947+Q6B856).
T1 construct: gene TUBB2B; calf brain tubulin; with α-tubulin
The experiment in a line: fluorescence competition: displacement of TUB091 fluorescence by TUB092, giving Ka ([…] GTP). It is filed as binding. The conditions noted are these: read-out: fluorescence competition: displacement of TUB091 fluorescence by TUB092, giving.

Regarding `COc1ccc(/C=C(\C)C(=O)c2cc(OC)c3c(c2)OCO3)cc1N` [compound 11, (E)-3-(3’’-amino-4’’-methoxyphenyl)-1-(5’-methoxy-3’,4’-methylendioxyphenyl)-2-methylprop-2-en-1-one], the Kd was 0.0909 µM.
